Laboratory results as given in US10383926B2, “Biological markers useful in cancer immunotherapy” (GEMVAX & KAEL CO., LTD., priority 2013, dated 2019).

Assays:
26 cytokines in serum = assay: Luminex multiplex inflammatory cytokine analysis of patient serum (TeloVac trial); assay type: in vivo, human
Protocol: (§1) The TeloVac trial, was initiated in January 2007 comparing combination therapy with Gemcitabine and Capecitabine (GemCap) therapy with concurrent and sequential chemo-immunotherapy using GV1001 in locally advanced and metastatic pancreatic cancer.
(§2) After this, GV1001 was administered once monthly. GM-CSF was administered separately as an intradermal injection 10-15 minutes before all GV1001 injections at the approximately same site.
Cytokine Results: The Kruskal-Wallis comparison of Arm 2 and Arm 3 baseline (i.e. before treatment) with arm 2 week 7 (GemCap) with Arm 3 week 10 (GemCap and GV1001) serum samples are shown in table 1 below.
Paired analysis was carried out for: • Arm 2 patients at baseline and following 7 weeks of GemCap treatment. • Arm 3 patients at baseline and following 10 weeks of GemCap and GV1001 treatment.

[1] = system: locally advanced and metastatic pancreatic cancer; assay: Survival analysis, TeloVac Phase III trial; assay type: in vivo, human; details: 1062 patients, 52 centres
Protocol: The TeloVac trial recruited 1062 patients in 52 centres throughout the UK. […] Importantly, biomarkers for an increased survival in response to the vaccine were identified in a subgroup of patients.
as §1, §2

[2] = system: advanced pancreatic and pulmonary cancer patients; details: cited from earlier work
HLA class II molecules = details: cited from earlier work

EARPALLTSRLRFIPK (listed as Homo sapiens) [GV1001, 16-mer peptide, fragment of the human telomerase enzyme]
anti-inflammatory response (26 cytokines in serum; TeloVac translational research): significant anti-inflammatory response | regulation of serum levels of eotaxin or MIP1α (26 cytokines in serum; human, in vivo): did not appear that treatment with GV1001 could regulate | change of serum cytokine levels, pre-treatment compared to post treatment (26 cytokines in serum; serum, paired analysis): this decrease was not evident | overall survival versus control group receiving chemotherapy [1]: no significant difference in overall survival | GV1001-specific T-cell responses, subjects [2]: > 50% | toxicity [2]: without clinically important toxicity | HLA binding (HLA class II molecules): binds multiple HLA class II molecules
